In article doi:10.1101/2021.11.01.466777v1 (bioRxiv, 2021):
Starred links: 1 amine or outer side, 2 acyl side, 3 side chain; linkers in the order of their positions; H or OH if unused. Positions of bridges follow the written chain, without caps; N, C: chain ends. Non-standard residues stand in square brackets, D forms with d. Residues, ends and D or L forms follow the SMILES beside them. *: point of attachment. dAsp(3R-OH) = N[C@@H](C(=O)O)[C@@H](O)C(=O)O; X1 = NC[C@H](O)[C@@H](N[*:1])C(=O)[*:2]; X2 = CCC(C)(O)[C@H](N[*:1])C(=O)[*:2]; d(aIle) = CC[C@H](C)[C@@H](N)C(=O)O; d(aThr) = C[C@@H](O)[C@@H](N)C(=O)O; Myristoyl = CCCCCCCCCCCCCC(=O)*; dOrn = NCCC[C@@H](N)C(=O)O; hSer = N[C@@H](CCO)C(=O)O

Key:
[1] = Pharmacokinetics after IV slow bolus in uninfected mice; format: in vivo, mouse (female BALB/c); details: 5 mg/kg IV; for Plasma concentration, Mean: mean of n = 3
[2] = system: neutropenic female BALB/c mice; assay: Toxicity and Maximum Tolerated Dose; format: in vivo, mouse
[3] = human volunteers; no reference given; cited from earlier work

CCCCCCCCCCCCCC(=O)N[C@H](CCCN)C(=O)N[C@@H](CO)C(=O)N[C@H](C(=O)N[C@@H](C(=O)N[C@@H](C(=O)N[C@H]1C(=O)NCC(=O)N[C@@H](C(C)(O)CC)C(=O)N[C@H]([C@@H](C)CC)C(=O)N[C@@H](CCO)C(=O)N[C@@H](C)C(=O)N[C@H]([C@@H](C)CC)C(=O)N[C@@H](CCC(=O)O)C(=O)O[C@@H]1C)[C@@H](O)CN)[C@@H](O)C(=O)O)C(C)C (stereo partly drawn) [turnercyclamycin A] (Myristoyl-[dOrn]SV[dAsp(3R-OH)][X1][d(aThr)]G[X2][d(aIle)][hSer]A[d(aIle)]E; ester 6-C)
Plasma concentration, Mean ([1]; 0.05 h): 53333 ng/mL
Sample concentration in plasma ([1]; 0.05 h, sample 1, LC-MS/MS): 52235 ng/mL
Sample concentration in plasma ([1]; 0.05 h, sample 2, LC-MS/MS): 51887 ng/mL
Sample concentration in plasma ([1]; 0.05 h, sample 3, LC-MS/MS): 55877 ng/mL
Plasma concentration, Mean ([1]; 0.167 h): 38646 ng/mL
Sample concentration in plasma ([1]; 0.167 h, sample 1, LC-MS/MS): 36107 ng/mL
Sample concentration in plasma ([1]; 0.167 h, sample 2, LC-MS/MS): 38906 ng/mL
Sample concentration in plasma ([1]; 0.167 h, sample 3, LC-MS/MS): 40924 ng/mL
Plasma concentration, Mean ([1]; 1 h): 29269 ng/mL
Sample concentration in plasma ([1]; 1 h, sample 1, LC-MS/MS): 24635 ng/mL
Sample concentration in plasma ([1]; 1 h, sample 3, LC-MS/MS): 29337 ng/mL
Plasma concentration, Mean ([1]; 2 h): 26200 ng/mL
Sample concentration in plasma ([1]; 2 h, sample 1, LC-MS/MS): 26373 ng/mL
Sample concentration in plasma ([1]; 2 h, sample 2, LC-MS/MS): 25446 ng/mL
Sample concentration in plasma ([1]; 2 h, sample 3, LC-MS/MS): 26782 ng/mL
Plasma concentration, Mean ([1]; 4 h): 22542 ng/mL
Sample concentration in plasma ([1]; 4 h, sample 1, LC-MS/MS): 22923 ng/mL
Sample concentration in plasma ([1]; 4 h, sample 2, LC-MS/MS): 22209 ng/mL
Sample concentration in plasma ([1]; 4 h, sample 3, LC-MS/MS): 22495 ng/mL
Plasma concentration, Mean ([1]; 8 h): 11971 ng/mL
Sample concentration in plasma ([1]; 8 h, sample 1, LC-MS/MS): 11661 ng/mL
Sample concentration in plasma ([1]; 8 h, sample 2, LC-MS/MS): 13130 ng/mL
Sample concentration in plasma ([1]; 8 h, sample 3, LC-MS/MS): 11123 ng/mL
Plasma concentration, Mean ([1]; 24 h): 931 ng/mL
Sample concentration in plasma ([1]; 24 h, sample 1, LC-MS/MS): 974 ng/mL
Sample concentration in plasma ([1]; 24 h, sample 2, LC-MS/MS): 764 ng/mL
Sample concentration in plasma ([1]; 24 h, sample 3, LC-MS/MS): 1054 ng/mL
CL ([1]; mouse plasma, NCA): 0.29 mL/min/kg
Sample concentration in plasma ([1]; time printed 0 h, sample 1, LC-MS/MS): 34373 ng/mL
Sample concentration in plasma ([1]; time printed 0 h, sample 2, LC-MS/MS): 31954 ng/mL
Sample concentration in plasma ([1]; time printed 0 h, sample 3, LC-MS/MS): 34645 ng/mL
body weight change ([2]; 25 mg/kg (printed mg/mL) IV BID q12h, 24 hours after first treatment): no body weight drop was observed
mortality ([2]; 25 mg/kg (printed mg/mL) IV BID q12h, n = 3): did not induce mortality in any mice
Body Weight ([2]; 25 mg/kg IV bid (q12h) x1, mouse No. 7, Day 0 (first)): 17 g
Body Weight ([2]; 25 mg/kg IV bid (q12h) x1, mouse No. 7, Day 1): 17 g
Body Weight ([2]; 25 mg/kg IV bid (q12h) x1, mouse No. 8, Day 0 (first)): 17 g
Body Weight ([2]; 25 mg/kg IV bid (q12h) x1, mouse No. 8, Day 1): 17 g
body weight change ([2]; 50 mg/kg (printed mg/mL) IV BID q12h, 24 hours post-treatment): slight body weight losses were observed
mortality ([2]; 50 mg/kg (printed mg/mL) IV BID q12h, n = 3): did not induce mortality in any mice
Body Weight ([2]; 50 mg/kg IV bid (q12h) x1, mouse No. 4, Day 0 (first)): 16 g
Body Weight ([2]; 50 mg/kg IV bid (q12h) x1, mouse No. 4, Day 0 (second)): 15 g
Body Weight ([2]; 50 mg/kg IV bid (q12h) x1, mouse No. 4, Day 1): 15 g
Body Weight ([2]; 50 mg/kg IV bid (q12h) x1, mouse No. 5, Day 0 (first)): 15 g
Body Weight ([2]; 50 mg/kg IV bid (q12h) x1, mouse No. 5, Day 1): 14 g
Body Weight ([2]; 50 mg/kg IV bid (q12h) x1, mouse No. 6, Day 0 (first)): 16 g
Body Weight ([2]; 50 mg/kg IV bid (q12h) x1, mouse No. 6, Day 0 (second)): 16 g
Body Weight ([2]; 50 mg/kg IV bid (q12h) x1, mouse No. 6, Day 1): 16 g
mortality ([2]; 100 mg/kg IV): fatal in the first mouse
well tolerated dose ([2]; mice, IV BID q12h): up to 25 mg/kg
Maximum Tolerated Dose (MTD) ([2]; neutropenic female BALB/c mice, IV BID q12h, n = 3 per dose): 25 mg/kg

daptomycin
volume of distribution [3]: 0.1 L/kg
